The results in this text go back to publication PMC5218480 (PLoS ONE, 2017).

For this assay, the system named is MV-4-11 cells. In words: Gene expression microarray analysis (Affymetrix PrimeView) and GSEA. Type of assay: cell-based, human. On the set-up: RFU PODN (11730768_x_at) / Fold change /veh PODN (11730768_x_at) / RFU LINC00158 (11744669_a_at) / Fold change /veh LINC00158 (11744669_a_at) / RFU DUSP10 (11751237_a_at) / Fold change /veh DUSP10 (11751237_a_at) / RFU ID3 (11757404_x_at) / Fold change /veh ID3 (11757404_x_at) / RFU PLEKHG5 (11737974_s_at) / Fold change /veh PLEKHG5 (11737974_s_at) / RFU LRRC4B (11730491_at) / Fold change /veh LRRC4B (11730491_at) / RFU GIMAP4 (11747438_a_at) / Fold change /veh GIMAP4 (11747438_a_at) / RFU KRT8 (11758183_x_at) / Fold change /veh KRT8 (11758183_x_at) / RFU CNN1 (11734310_a_at) / Fold change /veh CNN1 (11734310_a_at) / RFU VPS37D (11726825_at) / Fold change /veh VPS37D (11726825_at) / RFU C10orf10 (11716522_x_at) / Fold change /veh C10orf10 (11716522_x_at) / RFU KIR2DL2 /// KIR2DL4 /// KIR2DL5A /// KIR2DL5B /// KIR2DS1 /// KIR2DS2 /// KIR2DS3 /// KIR2DS4 /// KIR3DL3 /// KIR3DL3 /// KIR3DS1 (11738374_at) / Fold change /veh KIR2DL2 /// KIR2DL4 /// KIR2DL5A /// KIR2DL5B /// KIR2DS1 /// KIR2DS2 /// KIR2DS3 /// KIR2DS4 /// KIR3DL3 /// KIR3DL3 /// KIR3DS1 (11738374_at) / RFU C1QL1 (11718748_at) / Fold change /veh C1QL1 (11718748_at) / RFU TMPRSS4 (11747572_a_at) / Fold change /veh TMPRSS4 (11747572_a_at) / RFU HAMP (11756126_x_at) / Fold change /veh HAMP (11756126_x_at) / RFU RNFT2 (11725882_a_at) / Fold change /veh RNFT2 (11725882_a_at) / RFU NR4A2 (11747474_a_at) / Fold change /veh NR4A2 (11747474_a_at) / RFU ABCC12 (11746883_a_at) / Fold change /veh ABCC12 (11746883_a_at) / RFU TMEM136 (11760407_x_at) / Fold change /veh TMEM136 (11760407_x_at) / RFU CLDN22 /// WWC2 (11732394_at) / Fold change /veh CLDN22 /// WWC2 (11732394_at) / RFU HLA-DPB1 (11760878_x_at) / Fold change /veh HLA-DPB1 (11760878_x_at) / RFU SPINT1 (11716480_a_at) / Fold change /veh SPINT1 (11716480_a_at) / RFU GAP43 (11754022_s_at) / Fold change /veh GAP43 (11754022_s_at) / RFU A4GNT (11735810_at) / Fold change /veh A4GNT (11735810_at) / RFU PRB3 (11715151_x_at) / Fold change /veh PRB3 (11715151_x_at) / RFU TUBB4B (11761932_at) / Fold change /veh TUBB4B (11761932_at) / RFU CAPN14 (11732068_a_at) / Fold change /veh CAPN14 (11732068_a_at) / RFU TMCC2 (11721928_a_at) / Fold change /veh TMCC2 (11721928_a_at) / RFU IRGQ (11745062_a_at) / Fold change /veh IRGQ (11745062_a_at) / RFU FAM174B (11720279_a_at) / Fold change /veh FAM174B (11720279_a_at) / RFU TMPRSS4 (11748680_a_at) / Fold change /veh TMPRSS4 (11748680_a_at) / RFU FAM212B (11763350_a_at) / Fold change /veh FAM212B (11763350_a_at) / RFU PLEKHG5 (11743358_a_at) / Fold change /veh PLEKHG5 (11743358_a_at) / RFU ZSCAN30 (11745921_a_at) / Fold change /veh ZSCAN30 (11745921_a_at) / RFU CMKLR1 (11741424_a_at) / Fold change /veh CMKLR1 (11741424_a_at) / RFU LOC101060620 /// MAPK8IP1 (11723275_at) / Fold change /veh LOC101060620 /// MAPK8IP1 (11723275_at) / RFU SPTSSB (11747773_x_at) / Fold change /veh SPTSSB (11747773_x_at) / RFU PRSS12 (11739890_at) / Fold change /veh PRSS12 (11739890_at) / RFU BIN1 (11741810_x_at) / Fold change /veh BIN1 (11741810_x_at) / RFU WNT11 (11732464_a_at) / Fold change /veh WNT11 (11732464_a_at) / RFU C10orf10 (11716521_a_at) / Fold change /veh C10orf10 (11716521_a_at) / RFU C5orf56 (11738089_at) / Fold change /veh C5orf56 (11738089_at) / RFU CYB561 (11721691_x_at) / Fold change /veh CYB561 (11721691_x_at) / RFU ANKRD19P (11752326_a_at) / Fold change /veh ANKRD19P (11752326_a_at) / RFU OR2T12 /// OR2T33 /// OR2T8 (11738714_s_at) / Fold change /veh OR2T12 /// OR2T33 /// OR2T8 (11738714_s_at) / RFU VCAN (11748164_a_at) / Fold change /veh VCAN (11748164_a_at) / RFU JSRP1 (11732532_at) / Fold change /veh JSRP1 (11732532_at) / RFU KRTAP10-11 (11738290_x_at) / Fold change /veh KRTAP10-11 (11738290_x_at) / RFU MYO3A (11730013_a_at) / Fold change /veh MYO3A (11730013_a_at) / RFU EBF3 (11725865_a_at) / Fold change /veh EBF3 (11725865_a_at) / RFU CAMK2N1 (11719241_x_at) / Fold change /veh CAMK2N1 (11719241_x_at) / RFU C5orf56 (11738088_a_at) / Fold change /veh C5orf56 (11738088_a_at) / RFU OLFML3 (11715873_a_at) / Fold change /veh OLFML3 (11715873_a_at) / RFU LOC100653217 /// NTM (11731650_a_at) / Fold change /veh LOC100653217 /// NTM (11731650_a_at) / RFU MAPK11 (11762145_a_at) / Fold change /veh MAPK11 (11762145_a_at) / RFU FIZ1 (11724087_x_at) / Fold change /veh FIZ1 (11724087_x_at) / RFU OASL (11726364_x_at) / Fold change /veh OASL (11726364_x_at) / RFU SOX15 (11748057_x_at) / Fold change /veh SOX15 (11748057_x_at) / RFU CD79A (11719716_a_at) / Fold change /veh CD79A (11719716_a_at) / RFU HIST1H1D (11736915_at) / Fold change /veh HIST1H1D (11736915_at) / RFU CASKIN2 (11723855_a_at) / Fold change /veh CASKIN2 (11723855_a_at) / RFU LOC730098 (11760151_x_at) / Fold change /veh LOC730098 (11760151_x_at) / RFU OR4N2 (11742367_at) / Fold change /veh OR4N2 (11742367_at) / RFU PRRT2 (11749266_a_at) / Fold change /veh PRRT2 (11749266_a_at) / RFU SNX32 (11753110_a_at) / Fold change /veh SNX32 (11753110_a_at) / RFU CDHR5 (11726645_a_at) / Fold change /veh CDHR5 (11726645_a_at) / RFU RCAN1 (11760418_a_at) / Fold change /veh RCAN1 (11760418_a_at) / RFU FAM167A (11723789_a_at) / Fold change /veh FAM167A (11723789_a_at) / RFU FAM26E (11764081_at) / Fold change /veh FAM26E (11764081_at) / RFU ISYNA1 (11749810_s_at) / Fold change /veh ISYNA1 (11749810_s_at) / RFU ACY1 (11761880_at) / Fold change /veh ACY1 (11761880_at) / RFU 11764098_at / Fold change /veh 11764098_at / RFU SAMD14 (11745864_x_at) / Fold change /veh SAMD14 (11745864_x_at) / RFU NPB (11741838_a_at) / Fold change /veh NPB (11741838_a_at) / RFU TMPRSS6 (11731388_a_at) / Fold change /veh TMPRSS6 (11731388_a_at) / RFU KRTAP10-2 (11738614_at) / Fold change /veh KRTAP10-2 (11738614_at) / RFU ARHGAP8 /// PRR5-ARHGAP8 (11727945_x_at) / Fold change /veh ARHGAP8 /// PRR5-ARHGAP8 (11727945_x_at) / RFU KRTAP5-7 /// NADSYN1 (11734609_at) / Fold change /veh KRTAP5-7 /// NADSYN1 (11734609_at) / RFU RASL12 (11751679_a_at) / Fold change /veh RASL12 (11751679_a_at) / RFU CDKN2B (11736163_a_at) / Fold change /veh CDKN2B (11736163_a_at) / RFU PRF1 (11729649_at) / Fold change /veh PRF1 (11729649_at) / RFU, ZNF638 /// ZNF638-IT1 / Fold change vs veh, ZNF638 /// ZNF638-IT1 / RFU, PANK3 / Fold change vs veh, PANK3 / RFU, SH3YL1 / Fold change vs veh, SH3YL1 / RFU, ZEB2 / Fold change vs veh, ZEB2 / RFU, NRIP1 / Fold change vs veh, NRIP1 / RFU, PTTG1IP / Fold change vs veh, PTTG1IP / RFU, CAPN2 / Fold change vs veh, CAPN2 / RFU, MED14 / Fold change vs veh, MED14 / RFU, SNORA58 / Fold change vs veh, SNORA58 / RFU, C1orf63 / Fold change vs veh, C1orf63 / RFU, LRRFIP1 / Fold change vs veh, LRRFIP1 / RFU, NDUFAF7 / Fold change vs veh, NDUFAF7 / RFU, SLC12A2 / Fold change vs veh, SLC12A2 / RFU, IBTK / Fold change vs veh, IBTK / RFU, ESF1 / Fold change vs veh, ESF1 / Fold change vs veh, TMEM50B / RFU, TAOK1 / Fold change vs veh, TAOK1 / RFU, ACBD3 / Fold change vs veh, ACBD3 / RFU, TMA16 / Fold change vs veh, TMA16 / RFU, RWDD3 / Fold change vs veh, RWDD3 / RFU, BCAT1 / Fold change vs veh, BCAT1 / RFU, EDEM3 / Fold change vs veh, EDEM3 / RFU, TMEM33 / Fold change vs veh, TMEM33 / RFU, WDR75 / Fold change vs veh, WDR75 / RFU, AHCTF1 / Fold change vs veh, AHCTF1 / RFU, TFRC / Fold change vs veh, TFRC / RFU, ZDHHC17 / Fold change vs veh, ZDHHC17 / RFU, NOM1 / Fold change vs veh, NOM1 / RFU, ARL8B / Fold change vs veh, ARL8B / RFU, ZBTB11 / Fold change vs veh, ZBTB11 / RFU, TAMM41 / Fold change vs veh, TAMM41 / RFU, KIAA1704 /// LOC100996395 / Fold change vs veh, KIAA1704 /// LOC100996395 / RFU, ING1 / Fold change vs veh, ING1 / RFU, TRMT61B / Fold change vs veh, TRMT61B / RFU, FUBP3 / Fold change vs veh, FUBP3 / RFU, TP53 / Fold change vs veh, TP53 / RFU, TNKS2 / Fold change vs veh, TNKS2 / RFU, ZFP14 / Fold change vs veh, ZFP14 / RFU, ACTR2 / Fold change vs veh, ACTR2 / RFU, PPP3R1 / Fold change vs veh, PPP3R1 / RFU, PIK3R1 / Fold change vs veh, PIK3R1 / RFU, HNRNPA1 / Fold change vs veh, HNRNPA1 / RFU, RNF170 / Fold change vs veh, RNF170 / RFU, ZNF28 / Fold change vs veh, ZNF28 / RFU, RNGTT / Fold change vs veh, RNGTT / RFU, OGT / Fold change vs veh, OGT / RFU, BRD1 / Fold change vs veh, BRD1 / RFU, MARS / Fold change vs veh, MARS / RFU, ZNF655 / Fold change vs veh, ZNF655 / RFU, FAHD1 / Fold change vs veh, FAHD1 / RFU, BDP1 / Fold change vs veh, BDP1 / RFU, LRRCC1 / Fold change vs veh, LRRCC1 / RFU, ARID1A / Fold change vs veh, ARID1A / RFU, ZNF146 / Fold change vs veh, ZNF146 / RFU, ZNF330 / Fold change vs veh, ZNF330 / RFU, GPN3 / Fold change vs veh, GPN3 / RFU, C9orf123 / Fold change vs veh, C9orf123 / RFU, N4BP2L2 / Fold change vs veh, N4BP2L2 / RFU, ARFIP1 / Fold change vs veh, ARFIP1 / RFU, FAM179B / Fold change vs veh, FAM179B / RFU, BCL10 / Fold change vs veh, BCL10 / RFU, UHRF1BP1L / Fold change vs veh, UHRF1BP1L / RFU, BET1 / Fold change vs veh, BET1 / RFU, CNOT2 / Fold change vs veh, CNOT2 / RFU, ZNF268 / Fold change vs veh, ZNF268 / Fold change vs veh, ZNF507 / RFU, DGCR2 / Fold change vs veh, DGCR2 / RFU, WDSUB1 / Fold change vs veh, WDSUB1 / Fold change vs veh, HSP90B1 /// MIR3652 / RFU, ADSS / Fold change vs veh, ADSS / RFU, GK / Fold change vs veh, GK / RFU, ZNF148 / Fold change vs veh, ZNF148 / RFU, TAF9 / Fold change vs veh, TAF9 / RFU, SLC1A5 / Fold change vs veh, SLC1A5 / RFU, SLMO2 / Fold change vs veh, SLMO2 / RFU, ABCC4 / Fold change vs veh, ABCC4 / RFU, LOC101060439 /// RAP1B / Fold change vs veh, LOC101060439 /// RAP1B / RFU, RFX7 / Fold change vs veh, RFX7 / RFU, GTPBP10 / Fold change vs veh, GTPBP10 / RFU, CNEP1R1 / Fold change vs veh, CNEP1R1 / RFU, BIVM-ERCC5 /// ERCC5 / Fold change vs veh, BIVM-ERCC5 /// ERCC5 / RFU, ILF3 / Fold change vs veh, ILF3 / RFU 11762660_at / Fold change /veh 11762660_at / RFU VCAN (11757783_s_at) / Fold change /veh VCAN (11757783_s_at) / RFU DDX43 (11728927_at) / Fold change /veh DDX43 (11728927_at) / RFU KRT8 (11758188_x_at) / Fold change /veh KRT8 (11758188_x_at) / RFU NKD1 (11759106_at) / Fold change /veh NKD1 (11759106_at) / RFU SRD5A1 (11742802_a_at) / Fold change /veh SRD5A1 (11742802_a_at) / RFU TPSAB1 /// TPSB2 (11721975_s_at) / Fold change /veh TPSAB1 /// TPSB2 (11721975_s_at) / RFU GSTM3 (11746129_a_at) / Fold change /veh GSTM3 (11746129_a_at) / RFU IL23R (11737362_x_at) / Fold change /veh IL23R (11737362_x_at) / RFU TMEM51 (11727254_a_at) / Fold change /veh TMEM51 (11727254_a_at) / RFU PIWIL2 (11732686_x_at) / Fold change /veh PIWIL2 (11732686_x_at) / RFU ORM1 (11744905_x_at) / Fold change /veh ORM1 (11744905_x_at) / RFU CCDC152 (11743942_at) / Fold change /veh CCDC152 (11743942_at) / RFU ECM1 (11717891_a_at) / Fold change /veh ECM1 (11717891_a_at) / RFU IL23R (11748794_a_at) / Fold change /veh IL23R (11748794_a_at) / RFU TNFAIP8L3 (11732012_x_at) / Fold change /veh TNFAIP8L3 (11732012_x_at) / RFU MBOAT4 (11741988_at) / Fold change /veh MBOAT4 (11741988_at) / RFU 11764193_at / Fold change /veh 11764193_at / RFU TMEM53 (11763286_at) / Fold change /veh TMEM53 (11763286_at) / RFU MAGEB2 (11727129_at) / Fold change /veh MAGEB2 (11727129_at) / RFU TMEM200A (11744735_a_at) / Fold change /veh TMEM200A (11744735_a_at) / RFU CCDC152 (11751479_a_at) / Fold change /veh CCDC152 (11751479_a_at) / RFU FAM211A (11726209_a_at) / Fold change /veh FAM211A (11726209_a_at) / RFU RGS16 (11746705_a_at) / Fold change /veh RGS16 (11746705_a_at) / RFU VCAN (11755009_s_at) / Fold change /veh VCAN (11755009_s_at) / RFU RHOB (11743442_s_at) / Fold change /veh RHOB (11743442_s_at) / RFU RGS16 (11720943_a_at) / Fold change /veh RGS16 (11720943_a_at) / RFU RGS16 (11720944_at) / Fold change /veh RGS16 (11720944_at) / RFU, VPS4B / Fold change vs veh, VPS4B / RFU, CREB1 / Fold change vs veh, CREB1 / RFU, DNAJC13 / Fold change vs veh, DNAJC13 / RFU, GNAQ / Fold change vs veh, GNAQ / RFU, CDK5R1 / Fold change vs veh, CDK5R1 / RFU, ZRANB3 / Fold change vs veh, ZRANB3 / RFU, CUL4A / Fold change vs veh, CUL4A / RFU, CCNY / Fold change vs veh, CCNY / RFU, UFL1 / Fold change vs veh, UFL1 / RFU, COG3 / Fold change vs veh, COG3 / RFU, DIAPH2 / Fold change vs veh, DIAPH2 / RFU, SKA2 / Fold change vs veh, SKA2 / RFU, AFF3 / Fold change vs veh, AFF3 / RFU, LMF1 / Fold change vs veh, LMF1 / RFU, IPO11 / Fold change vs veh, IPO11 / RFU, DFFB / Fold change vs veh, DFFB / RFU, FOXP1 / Fold change vs veh, FOXP1 / RFU, CARD8 / Fold change vs veh, CARD8 / RFU, STRN3 / Fold change vs veh, STRN3 / RFU, ADK / Fold change vs veh, ADK / RFU, RASSF2 / Fold change vs veh, RASSF2 / RFU, WIPF1 / Fold change vs veh, WIPF1 / RFU, LARP1B / Fold change vs veh, LARP1B / RFU, RASA1 / Fold change vs veh, RASA1 / RFU, RB1 / Fold change vs veh, RB1 / RFU, PPFIA1 / Fold change vs veh, PPFIA1 / RFU, MAT2A / Fold change vs veh, MAT2A / RFU, CCT5 / Fold change vs veh, CCT5 / RFU, WDR92 / Fold change vs veh, WDR92 / RFU, CUX1 / Fold change vs veh, CUX1 / RFU, TTC7A / Fold change vs veh, TTC7A / RFU, TMEM135 / Fold change vs veh, TMEM135 / RFU, DEPTOR / Fold change vs veh, DEPTOR / RFU, CPM / Fold change vs veh, CPM / RFU, DNAJB6 / Fold change vs veh, DNAJB6 / RFU, CACNA2D3 / Fold change vs veh, CACNA2D3 / RFU, DTX4 / Fold change vs veh, DTX4 / RFU, TFCP2 / Fold change vs veh, TFCP2 / RFU, GMCL1 /// GMCL1P1 / Fold change vs veh, GMCL1 /// GMCL1P1 / RFU, AEBP2 / Fold change vs veh, AEBP2 / RFU, SNHG1 /// SNORD22 /// SNORD25 /// SNORD26 /// SNORD27 /// SNORD28 /// SNORD29 /// SNORD31 / Fold change vs veh, SNHG1 /// SNORD22 /// SNORD25 /// SNORD26 /// SNORD27 /// SNORD28 /// SNORD29 /// SNORD31 / Fold change (Aza/veh), C12orf56 (ProbeSet 11735607_a_at) / Fold change (ACY-1035/veh), C12orf56 (ProbeSet 11735607_a_at) / Fold change (Aza/veh), FGFR1OP (ProbeSet 11751329_s_at) / Fold change (ACY-1035/veh), FGFR1OP (ProbeSet 11751329_s_at) / Fold change (Aza/veh), VPS36 (ProbeSet 11739960_a_at) / Fold change (ACY-1035/veh), VPS36 (ProbeSet 11739960_a_at) / RFU SYPL1 (11715823_x_at) / Fold change /veh SYPL1 (11715823_x_at) / RFU IGFBP7 (11715501_s_at) / Fold change /veh IGFBP7 (11715501_s_at) / RFU REEP3 (11722064_at) / Fold change /veh REEP3 (11722064_at) / RFU IGLL1 (11728026_x_at) / Fold change /veh IGLL1 (11728026_x_at): dose or concentration left out as unconfirmed. Conditions: MV-4-11 cells, 48 hours.

Consider `Nc1ccc(-c2cccs2)cc1NC(=O)c1ccc2c(c1)cc(C1CC1)n2CCN1CCOCC1` [ACY-1035], for which the “Fold change /veh IGLL1 (11728026_x_at)” value came out at 0.28.
